# Data: patent US20240400542A1 (University of Virginia Patent Foundation, priority 2021, published 2024)
# Target: T1, PFKL (Homo sapiens, UniProt P17858)
# T1 construct: endogenous in cells; host or cells: HEK293T
# T1 sequence (P17858 1-780): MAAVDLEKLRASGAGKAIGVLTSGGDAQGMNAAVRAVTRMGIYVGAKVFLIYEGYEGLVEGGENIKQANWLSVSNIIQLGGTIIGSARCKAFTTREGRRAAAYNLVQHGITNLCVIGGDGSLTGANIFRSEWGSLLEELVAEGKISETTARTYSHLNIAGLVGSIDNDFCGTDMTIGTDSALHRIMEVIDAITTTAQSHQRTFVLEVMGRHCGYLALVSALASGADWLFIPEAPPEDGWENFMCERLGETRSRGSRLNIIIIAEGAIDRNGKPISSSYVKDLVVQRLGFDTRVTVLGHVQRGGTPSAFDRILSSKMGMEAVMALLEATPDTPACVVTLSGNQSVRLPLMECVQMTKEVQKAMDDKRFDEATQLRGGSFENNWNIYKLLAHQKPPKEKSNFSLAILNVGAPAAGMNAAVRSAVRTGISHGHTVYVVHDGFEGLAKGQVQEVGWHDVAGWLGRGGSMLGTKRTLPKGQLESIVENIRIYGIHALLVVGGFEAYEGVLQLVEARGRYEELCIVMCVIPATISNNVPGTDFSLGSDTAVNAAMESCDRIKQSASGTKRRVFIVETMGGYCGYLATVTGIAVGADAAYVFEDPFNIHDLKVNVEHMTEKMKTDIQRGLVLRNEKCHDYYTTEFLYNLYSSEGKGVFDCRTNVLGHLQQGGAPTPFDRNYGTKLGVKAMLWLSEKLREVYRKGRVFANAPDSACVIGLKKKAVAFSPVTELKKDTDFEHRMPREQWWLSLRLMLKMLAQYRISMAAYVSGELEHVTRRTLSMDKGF
# Assay: SILAC competitive chemical proteomic assay (TH211 probe, LC-MS/MS)
# Format: cell-based
# Conditions: HEK293T in situ, vehicle (light) vs inhibitor 2 μM (heavy) 1 hr, then TH211 50 μM 2 h; protein/site not given
# Method: The light and heavy proteomes (2.3 mg/mL, 432 μL) prepared from HEK293T cells that were pretreated in situ with vehicle (DMSO) or the inhibitor (2 μM), respectively, at 37° C. for 1 hr followed by probe TH211 treatment (50 μM) for 2 h, were directly were subjected to click reaction with the desthiobiotin-PEG3-azide (10 mM in DMSO, 10 μL, final concentration 200 μM) in the presence of TCEP (50 mM, 10 μL), TBTA (1.7 mM, 33 μL) and CuSO4 (50 mM, 10 μL) at room temperature for 1 hr. The light and the heavy samples were mixed in the chloroform-methanol extraction step. The subsequent steps including reduction with dithiothreitol, alkylation with iodoacetamide, digestion with Trypsin/Lys-C, enrichment with avidin beads were conducted as previously described^26.
# (§1) Some SuTEx analogues with RF001 fragment were synthesized and characterized. The in situ competition assay was then conducted, during which HEK293T cells were treated with 1 μM of a SuTEx analogue for 1 h, followed by treatment with 25 μM of TH211 as the probe for 2 h. […] The analogues with electron-donating groups like methyl or methoxy on the para position of phenyl performed better than those with electron-withdrawing groups. Under the same condition, the IC5o of TH220 was determined as 305.6 nM. The identity of the bound protein was studied by LC-MS/MS. The assay results indicated PFKL as the potential target and that binding sites include Y674 and K677, since the ratio trends are the same as that found in the in situ competition assay. To study selective targeting of PFKL by the series of SuTEx analogues, Fag-PFKL, Flag-PFKM, and Flag-PFKP were overexpressed in HEK293T cells and in vitro competition assays were performed for comparison. […] To optimize these SuTEx ligands, another series of derivatives were synthesized and evaluated with TH233 as a negative control and TH220 as positive control, respectively. […] Compared to TH220, the probinding activity of XJ-2-103 with trifluoromethyl group at para position of the phenyl ring is not as good, which is consistent with the results shown in FIG. 18A.
row,SILAC ratios (SR) from competitive chemical proteomic assay,Structure (SMILES)
1,8.41,COc1ccc(S(=O)(=O)n2cc(CCN3CCC(=C(c4ccc(F)cc4)c4ccc(F)cc4)CC3)nn2)cc1
2,1.04,"Cc1ccc(S(=O)(=O)n2cc(CCN3CCN(C(c4ccc(F)cc4)c4ccc(F)cc4)CC3)nn2)cc1 [TH208, 1-(Bis(4-fluorophenyl)methyl)-4-(2-(1-tosyl-1H-1,2,3-triazol-4-yl)ethyl)piperazine]"
3,2.48,"O=S(=O)(c1ccc(F)cc1)n1cc(CCN2CCC(=C(c3ccc(F)cc3)c3ccc(F)cc3)CC2)nn1 [TH221, 4-(Bis(4-fluorophenyl)methylene)-1-(2-(1-((4-fluorophenyl)sulfonyl)-1H-1,2,3-triazol-4-yl)ethyl)piperidine]"
4,0.95,"O=S(=O)(C1CC1)n1cc(CCN2CCC(=C(c3ccc(F)cc3)c3ccc(F)cc3)CC2)nn1 [TH223, 4-(bis(4-fluorophenyl)methylene)-1-(2-(1-(cyclopropylsulfonyl)-1H-1,2,3-triazol-4-yl)ethyl)piperidine]"

# Target: T1, PFKL
# Assay: In situ gel-based ABPP, blockade of TH211 probe labeling in HEK293T cells
# Format: cell-based
# Conditions: HEK293T cells in situ, 1 μM compound 1 h, then 25 μM TH211 2 h
# Method: HEK293T cells were incubated in 10 cm petri dishes with DMEM medium supplemented with 10% fetal bovine serum and 1% L-glutamine until the confluency reached about 90%. Aspirate the medium and then add serum-free-medium (SFM) with vehicle only (DMSO) or SuTEx compounds in DMSO, which afforded final concentrations of 0.1% DMSO. After incubation at 37° C. for 1 hrs in CO2 incubator, the medium was aspirated and 25 μM of probe TH211 in SFM was added. After incubation at 37° C. for 2 hrs, the medium was aspirated and the cells were washed off in cold PBS. Centrifuge at 400×g for 5 min to pellet and resuspend pellet again in PBS for 2× total washes. The cell pellets were resuspended and lysed by sonication (1 sec pulse, 20% amplitude, 3 times) in PBS in the presence of EDTA-free protease inhibitor cocktail tablet (Pierce Biotechnology, Waltham, Massachusetts, United States of America). The cell lysates were subject to ultracentrifugation (100,000×g, 45 min at 4° C.) to separate the cytosolic fraction in the supernatant and the membrane fraction as a pellet. Protein concentrations in soluble fraction were measured by the Bio-Rad DC protein assay (Bio-Rad Laboratories, Hercules, California, United States of America). Proteome aliquots (2 mg/mL, 50 μL) were conjugated with fluorophore which was accomplished by copper-catalyzed azide-alkyne cycloaddition (CuAAC) with rhodamine-azide (TAMRA-azide, 1.25 mM, 1 μL, final concentration of 25 μM) in the presence of tris(2-carboxyethyl)phosphine (TCEP, 50 mM fresh in water, 1 μL, final concentration of 1 mM), tris[(1-benzyl-1H-1,2,3-triazol-4-yl)methyl]amine (TBTA, 1.7 mM in 4:1 t-butanol/DMSO, 3 μL, final concentration of 100 μM) and CuSO4 (50 mM, 1 μL, final concentration of 1 mM). After 1 hr incubation at room temperature, reactions were quenched by adding 4×SDS-PAGE loading buffer and beta-mercaptoethanol (17 μL) and samples were resolved by SDS-PAGE followed by in-gel fluorescence scanning.
# as §1
row,"probinding activity (blockade of TH211 probe labeling), protein at ˜80 molecular weight",Structure (SMILES)
1,good probinding activity,"O=S(=O)(c1ccc2c(c1)OCCO2)n1cc(CCN2CCC(=C(c3ccc(F)cc3)c3ccc(F)cc3)CC2)nn1 [XJ-2-77, 4-(Bis(4-fluorophenyl)methylene)-1-(2-(1-((2,3-dihydrobenzo[b][1,4]dioxin-6-yl)sulfonyl-)-1H-1,2,3-triazol-4-yl)ethyl)piperidine]"
2,good probinding activity,O=S(=O)(c1ccc2c(c1)OCO2)n1cc(CCN2CCC(=C(c3ccc(F)cc3)c3ccc(F)cc3)CC2)nn1 [XJ-2-87]
3,good probinding activity,"O=S(=O)(c1ccc2c(c1)OC(F)(F)O2)n1cc(CCN2CCC(=C(c3ccc(F)cc3)c3ccc(F)cc3)CC2)nn1 [XJ-2-115, 4-(Bis(4-fluorophenyl)methylene)-1-(2-(1-((2,2-difluorobenzo[d][1,3]dioxol-5-yl)sulfonyl)-1H-1,2,3-triazol-4-yl)ethyl)piperidine]"
4,good probinding activity,"COc1ccccc1S(=O)(=O)n1cc(CCN2CCC(=C(c3ccc(F)cc3)c3ccc(F)cc3)CC2)nn1 [XJ-2-141, 4-(Bis(4-fluorophenyl)methylene)-1-(2-(1-((2-methoxyphenyl)sulfonyl)-1H-1,2,3-triazol-4-yl)ethyl)piperidine]"

# Same assay, conditions: HEK293T cells, compound 1 h, then 25 μM TH211 2 h; read-out: IC50 against PFKL, in situ TH211 chemical proteomic assay
row,IC50 [µM],Structure (SMILES)
1,0.306,COc1ccc(S(=O)(=O)n2cc(CCN3CCC(=C(c4ccc(F)cc4)c4ccc(F)cc4)CC3)nn2)cc1
